Source: patent publication US20160219881A1, “HERBICIDALLY ACTIVE 2-HALOGEN-4-ALKYNYL-PHENYL-PYRAZOLIDINE-DIONE OR PYRROLIDINE-DIONE DERIVATIVES” (SYNGENTA LIMITED, priority 2013, published 2016)

What was measured:
Format in all cases: in vivo
[1] = system: Echinochloa crus-galli (ECHCG); assay: Test 1A glasshouse assay, pre-emergence herbicidal activity; settings: 312 h, 13 days after application, read-out: Pre-Emergence Herbicidal Activity (% Phytotoxicity) ECHCG
Method: (§1) Seeds of a variety of test species are sown in standard soil (usually sandy soil) in pots. After cultivation for one day (pre-emergence) or after 8 days cultivation (post-emergence) under controlled conditions in a glasshouse (at 24/16° C., day/night; 14 hours light; 65% humidity), the plants are sprayed with an aqueous spray solution derived from the formulation of the technical active ingredient (compound) in acetone/water (50:50) solution containing 0.5% Tween 20 (polyoxyethylene sorbitan monolaurate, CAS RN 9005-64-5). The test plants are then grown under controlled conditions in a glasshouse (at 24/16° C., day/night; 14 hours light; 65% humidity) and watered twice daily. 13 days after application of the test compounds, for pre- and post-emergence, the test is evaluated visually for percentage phytotoxicity to each plant (where 100%=total damage to plant; 0%=no damage to plant).
Alopecurus myosuroides (ALOMY), Setaria faberi (SETFA), Echinochloa crus-galli (ECHCG), Amaranthus retroflexus (AMARE), and Abutilon theophasti Medik. (ABUTH, common English name “velvetleaf”). Of these, Alopecurus myosuroides (ALOMY), Setaria faberi (SETFA), and Echinochloa crus-galli (ECHCG) are grassy monocotyledonous weeds. […]

Lolium perenne (LOLPE) = assay: Test 1A glasshouse assay, post-emergence herbicidal activity; settings: 312 h, 13 days after application, read-out: Post-Emergence Herbicidal Activity (% Phytotoxicity) LOLPE
Method: as §1
(§2) Lolium perenne (LOLPE), Triticum aestivum (TRZAW, winter wheat, variety ‘Hereward’), Alopecurus myosuroides (ALOMY), Echinochloa crus-galli (ECHCG), and Avena fatua (AVEFA). All these are grassy monocotyledonous weeds and/or (for wheat) grassy crops.

[2] = system: Triticum aestivum (TRZAW, winter wheat, variety ‘Hereward’); assay: as above; settings: 312 h, 13 days after application, read-out: Post-Emergence Herbicidal Activity (% Phytotoxicity) TRZAW
Method: as §1, §2

SMILES: CC#Cc1cc(C)c(C2C(=O)C(Cc3ccccn3)N(C)C2=O)c(C)c1 (centres unmarked) [Compound A50, 3-(2,6-dimethyl-4-prop-1-ynyl-phenyl)-1-methyl-5-(2-pyridylmethyl)pyrrolidine-2,4-dione]
- inhibition at 62.5 g/ha ([1]; 62.5 g/ha): 70%
- inhibition at 250 g/ha ([1]; 250 g/ha): 90%
- inhibition at 15.625 g/ha (Lolium perenne (LOLPE); 15.625 g/ha): 40%
- inhibition at 62.5 g/ha (Lolium perenne (LOLPE); 62.5 g/ha): 70%
- inhibition at 250 g/ha (Lolium perenne (LOLPE); 250 g/ha): 100%
- inhibition at 15.625 g/ha ([2]; 15.625 g/ha): 30%
- inhibition at 62.5 g/ha ([2]; 62.5 g/ha): 70%
- inhibition at 250 g/ha ([2]; 250 g/ha): 80%
